target: EGFR (UniProt P00533)
Sequence (P00533 whole entry, looked up): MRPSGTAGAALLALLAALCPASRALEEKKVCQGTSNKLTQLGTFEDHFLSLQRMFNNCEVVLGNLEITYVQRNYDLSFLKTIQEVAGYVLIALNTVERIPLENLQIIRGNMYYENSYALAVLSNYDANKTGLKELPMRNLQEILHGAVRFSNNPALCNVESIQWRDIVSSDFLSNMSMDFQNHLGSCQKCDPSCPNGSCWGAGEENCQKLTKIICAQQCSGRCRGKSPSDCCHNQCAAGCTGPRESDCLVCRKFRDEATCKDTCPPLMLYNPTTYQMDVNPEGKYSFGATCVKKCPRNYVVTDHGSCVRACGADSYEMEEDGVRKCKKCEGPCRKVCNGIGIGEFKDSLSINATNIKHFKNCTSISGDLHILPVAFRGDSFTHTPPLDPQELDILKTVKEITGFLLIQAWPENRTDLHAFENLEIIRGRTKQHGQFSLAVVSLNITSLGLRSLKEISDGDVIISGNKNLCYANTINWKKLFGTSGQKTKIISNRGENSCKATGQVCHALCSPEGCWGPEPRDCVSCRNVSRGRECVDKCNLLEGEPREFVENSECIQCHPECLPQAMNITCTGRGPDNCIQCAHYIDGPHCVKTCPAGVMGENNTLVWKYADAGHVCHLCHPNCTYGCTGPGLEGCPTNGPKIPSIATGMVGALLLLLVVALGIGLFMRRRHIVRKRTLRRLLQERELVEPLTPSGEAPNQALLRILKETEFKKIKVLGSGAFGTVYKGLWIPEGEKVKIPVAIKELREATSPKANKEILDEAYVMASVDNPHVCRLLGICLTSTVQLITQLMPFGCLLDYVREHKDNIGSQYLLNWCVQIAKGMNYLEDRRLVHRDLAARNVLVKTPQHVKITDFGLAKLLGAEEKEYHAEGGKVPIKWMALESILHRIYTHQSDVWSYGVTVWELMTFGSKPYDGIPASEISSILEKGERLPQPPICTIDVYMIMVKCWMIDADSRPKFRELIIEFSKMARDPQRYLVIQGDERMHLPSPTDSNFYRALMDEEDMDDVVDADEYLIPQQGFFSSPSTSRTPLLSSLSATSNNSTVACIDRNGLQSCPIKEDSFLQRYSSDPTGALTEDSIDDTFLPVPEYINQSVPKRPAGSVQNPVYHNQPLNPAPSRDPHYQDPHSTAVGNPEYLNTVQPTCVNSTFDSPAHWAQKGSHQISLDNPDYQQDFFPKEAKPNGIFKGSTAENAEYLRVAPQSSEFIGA

SMILES | IC50 [µM]
COc1cc2c(NS(=O)(=O)c3ccc(C(C)(C)C)cc3)ncnc2cc1OCCCN(C)C | ≤ 1
CCN(CC)CCOc1cc2ncnc(NS(=O)(=O)c3cc(Cl)c(Cl)s3)c2cc1OC | ≤ 1
COc1cc2c(NS(=O)(=O)Cc3ccccc3)ncnc2cc1OCCN1CCOCC1 | ≤ 1
COc1cc2c(NS(=O)(=O)c3ccc(Cl)s3)ncnc2cc1OCCN1CCOCC1 | ≤ 1
COc1cc2c(NS(=O)(=O)c3ccc(Cl)cc3)ncnc2cc1OCCN1CCOCC1 | ≤ 1
COc1cc2c(NS(=O)(=O)c3ccc4ccccc4c3)ncnc2cc1OCCN1CCN(C)CC1 | ≤ 1
COc1cc2c(NS(=O)(=O)c3cccc4cccnc34)ncnc2cc1OC1CCN(C)CC1 | ≤ 1
CCN(CC)CCOc1cc2ncnc(NS(=O)(=O)c3ccccc3Cl)c2cc1OC | ≤ 1
CCN(CC)CCOc1cc2ncnc(NS(=O)(=O)c3cccc(Cl)c3)c2cc1OC | ≤ 1
CCN(CC)CCOc1cc2ncnc(NS(=O)(=O)c3ccc(C(C)(C)C)cc3)c2cc1OC | ≤ 1
COc1cc2c(NS(=O)(=O)c3ccccc3C)ncnc2cc1OCCCN1CCOCC1 | ≤ 1
COc1cc2c(NS(=O)(=O)c3ccccc3C)ncnc2cc1OCCN1CCN(C)CC1 | ≤ 1
COc1cc2c(NS(=O)(=O)c3ccccc3)ncnc2cc1OC1CCN(C)CC1 | ≤ 1
COc1cc2c(NS(=O)(=O)c3ccccc3Br)ncnc2cc1OCCCN1CCOCC1 | ≤ 1
COc1cc2c(NS(=O)(=O)c3ccc(Cl)cc3)ncnc2cc1OC1CCN(C)CC1 | ≤ 1
COc1ccc(S(=O)(=O)Nc2ncnc3cc(OCCCN4CCOCC4)c(OC)cc23)cc1 | ≤ 1
COc1cc2c(NS(=O)(=O)c3ccc(C)cc3)ncnc2cc1OCCCN(C)C | ≤ 1
COc1cc2c(NS(=O)(=O)c3ccc(OC(F)(F)F)cc3)ncnc2cc1OC1CCN(C)CC1 | ≤ 1
COc1cc2c(NS(=O)(=O)c3ccc(F)cc3)ncnc2cc1OCCN1CCCCC1 | ≤ 1
COc1cc2c(NS(=O)(=O)c3cc(Cl)c(Cl)s3)ncnc2cc1OCCCN(C)C | ≤ 1
COc1cc2c(NS(=O)(=O)c3ccc(F)cc3)ncnc2cc1OC1CCN(C)CC1 | ≤ 1
COc1cc2c(NS(=O)(=O)c3c(C)cc(C)cc3C)ncnc2cc1OCCCN(C)C | ≤ 1
COc1cc2c(NS(=O)(=O)c3cccc(Cl)c3)ncnc2cc1OC1CCN(C)CC1 | ≤ 1
COc1cc2c(NS(=O)(=O)c3c(C)cc(C)cc3C)ncnc2cc1OCCN1CCCCC1 | ≤ 1
COc1cc2c(NS(=O)(=O)c3cccc(Br)c3)ncnc2cc1OC1CCN(C)CC1 | ≤ 1
COc1cc2c(NS(=O)(=O)c3ccc4ccccc4c3)ncnc2cc1OCCCN(C)C | ≤ 1

SMILES | IC50 [µM]
COc1cc2c(NS(=O)(=O)c3cccc4cccnc34)ncnc2cc1OCCCN1CCOCC1 | ≤ 1
COc1cc2c(NS(=O)(=O)c3ccccc3Br)ncnc2cc1OCCCN(C)C | ≤ 1
COc1cc2c(NS(C)(=O)=O)ncnc2cc1OCCN1CCOCC1 | ≤ 1
CCN(CC)CCOc1cc2ncnc(NS(=O)(=O)Cc3ccccc3)c2cc1OC | ≤ 1
COc1cc2c(NS(=O)(=O)c3cn(C)cn3)ncnc2cc1OCCN1CCCCC1 | ≤ 1
COc1ccc(S(=O)(=O)Nc2ncnc3cc(OCCN4CCN(C)CC4)c(OC)cc23)cc1 | ≤ 1
COc1cc2c(NS(=O)(=O)c3cccc(Cl)c3)ncnc2cc1OCCN1CCN(C)CC1 | ≤ 1
COc1cc2c(NS(=O)(=O)c3ccccc3Cl)ncnc2cc1OCCCN1CCOCC1 | ≤ 1
COc1ccc(OC)c(S(=O)(=O)Nc2ncnc3cc(OCCCN(C)C)c(OC)cc23)c1 | ≤ 1
COc1cc2c(NS(=O)(=O)c3ccc4ccccc4c3)ncnc2cc1OC1CCN(C)CC1 | ≤ 1
COc1cc2c(NS(=O)(=O)c3cccc(Cl)c3Cl)ncnc2cc1OCCCN(C)C | ≤ 1
COc1cc2c(NS(=O)(=O)c3ccccc3Cl)ncnc2cc1OCCN1CCN(C)CC1 | ≤ 1
COc1cc2c(NS(=O)(=O)c3ccc(C)cc3)ncnc2cc1OCCN1CCN(C)CC1 | ≤ 1
CCN(CC)CCOc1cc2ncnc(NS(=O)(=O)c3cc(Cl)cc(Cl)c3)c2cc1OC | ≤ 1
CCN(CC)CCOc1cc2ncnc(NS(=O)(=O)c3ccccc3)c2cc1OC | ≤ 1
COc1cc2c(NS(=O)(=O)c3ccccc3)ncnc2cc1OCCCN(C)C | ≤ 1
CCN(CC)CCOc1cc2ncnc(NS(=O)(=O)c3ccc(Br)cc3)c2cc1OC | ≤ 1
COc1cc2c(NS(=O)(=O)c3ccc(Sc4ccccc4)s3)ncnc2cc1OC1CCN(C)CC1 | ≤ 1
COc1cc2c(NS(=O)(=O)c3ccccc3)ncnc2cc1OCCN1CCCCC1 | ≤ 1
COc1cc2c(NS(=O)(=O)c3ccccc3Br)ncnc2cc1OC1CCN(C)CC1 | ≤ 1
COc1cc2c(NS(=O)(=O)c3ccccc3Cl)ncnc2cc1OCCN1CCOCC1 | ≤ 1
COc1cc2c(NS(=O)(=O)c3ccc(OC(F)(F)F)cc3)ncnc2cc1OCCCN(C)C | ≤ 1
COc1cc2c(NS(C)(=O)=O)ncnc2cc1OCCN1CCN(C)CC1 | ≤ 1
COc1cc2c(NS(=O)(=O)c3ccc(Sc4ccccc4)s3)ncnc2cc1OCCCN(C)C | ≤ 1
COc1cc2c(NS(=O)(=O)c3ccc(Cl)cc3)ncnc2cc1OCCN1CCCCC1 | ≤ 1
COc1cc2c(NS(=O)(=O)c3cc(Cl)cc(Cl)c3)ncnc2cc1OCCCN1CCOCC1 | ≤ 1

SMILES | IC50 [µM]
COc1cc2c(NS(=O)(=O)c3ccc(OC(F)(F)F)cc3)ncnc2cc1OCCN1CCCCC1 | ≤ 1
COc1cc2c(NS(=O)(=O)c3ccccc3C)ncnc2cc1OC1CCN(C)CC1 | ≤ 1
COc1cc2c(NS(=O)(=O)c3cn(C)cn3)ncnc2cc1OCCN1CCOCC1 | ≤ 1
COc1cc2c(NS(=O)(=O)c3ccc(Br)cc3)ncnc2cc1OCCN1CCOCC1 | ≤ 1
COc1ccc(S(=O)(=O)Nc2ncnc3cc(OCCCN(C)C)c(OC)cc23)cc1OC | ≤ 1
COc1cc2c(NS(=O)(=O)c3cccc(Br)c3)ncnc2cc1OCCCN(C)C | ≤ 1
COc1cc2c(NS(=O)(=O)c3ccc(C(C)(C)C)cc3)ncnc2cc1OCCN1CCOCC1 | ≤ 1
COc1cc2c(NS(=O)(=O)c3ccccc3Cl)ncnc2cc1OC1CCN(C)CC1 | ≤ 1
COc1ccc(S(=O)(=O)Nc2ncnc3cc(OCCN4CCCCC4)c(OC)cc23)cc1 | ≤ 1
COc1cc2c(NS(=O)(=O)c3ccc(Sc4cccs4)s3)ncnc2cc1OCCN1CCOCC1 | ≤ 1
COc1cc2c(NS(=O)(=O)c3cc(Cl)c(Cl)s3)ncnc2cc1OCCN1CCOCC1 | ≤ 1
COc1cc2c(NS(=O)(=O)c3ccccc3C)ncnc2cc1OCCN1CCOCC1 | ≤ 1
COc1ccc(OC)c(S(=O)(=O)Nc2ncnc3cc(OCCN4CCCCC4)c(OC)cc23)c1 | ≤ 1
CCN(CC)CCOc1cc2ncnc(NS(=O)(=O)c3ccc(OC)c(OC)c3)c2cc1OC | ≤ 1
CCN(CC)CCOc1cc2ncnc(NS(C)(=O)=O)c2cc1OC | ≤ 1
COc1cc2c(NS(=O)(=O)c3cc(Cl)cc(Cl)c3)ncnc2cc1OCCCN(C)C | ≤ 1
COc1ccc(S(=O)(=O)Nc2ncnc3cc(OC4CCN(C)CC4)c(OC)cc23)cc1 | ≤ 1
COc1cc2c(NS(=O)(=O)c3ccc4ccccc4c3)ncnc2cc1OCCN1CCOCC1 | ≤ 1
CCN(CC)CCOc1cc2ncnc(NS(=O)(=O)c3ccc(Cl)s3)c2cc1OC | ≤ 1
COc1ccc(S(=O)(=O)Nc2ncnc3cc(OCCCN(C)C)c(OC)cc23)cc1 | ≤ 1
CCN(CC)CCOc1cc2ncnc(NS(=O)(=O)c3ccc(C)cc3)c2cc1OC | ≤ 1
COc1cc2c(NS(=O)(=O)c3ccccc3Cl)ncnc2cc1OCCCN(C)C | ≤ 1
COc1cc2c(NS(=O)(=O)c3cccc(Cl)c3Cl)ncnc2cc1OCCN1CCOCC1 | ≤ 1
COc1cc2c(NS(=O)(=O)c3cccc4cccnc34)ncnc2cc1OCCN1CCOCC1 | ≤ 1
CCN(CC)CCOc1cc2ncnc(NS(=O)(=O)c3ccc(OC(F)(F)F)cc3)c2cc1OC | ≤ 1
COc1cc2c(NS(=O)(=O)Cc3ccccc3)ncnc2cc1OC1CCN(C)CC1 | ≤ 1

From the Kinase Knowledgebase extract (Sharma et al. 2016)
